Assay results published in publication PMC6753678, “Fueling Open Innovation for Malaria Transmission-Blocking Drugs: Hundreds of Molecules Targeting Early Parasite Mosquito Stages” (Frontiers in Microbiology, 2019).
Read-outs that look alike come from different tables or passages of the source.

Legend:
[1] = tested on: 3D7-strain P. falciparum asexual parasites; experiment: P. falciparum asexual growth inhibition assay (Pf GIA); type: cell-based, Plasmodium falciparum; details: dose response confirmation; read-out: Pf asexual growth inhibition assays IC50
Procedure, shortened: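 Parasites at 0.25% parasitemia, 2% hematocrit in Albumax-supplemented RPMI were exposed to compounds in dose response for 72 h at 37°C under 5% CO2/5% O2. Viability was read as LDH activity (NBT/diaphorase, A650 after freeze-thaw). Percent inhibition was calculated against chloroquine and DMSO controls, mean of three biological replicates.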

HepG2 cells = experiment: HepG2 cytotoxicity assay; details: for Pb ODA (this manuscript) HepG2 cytoxicity: HepG2 cytotoxicity listed with the Pb ODA data set (this manuscript); for IC50: read-out: HepG2 cytotoxicity assay IC50, dose response confirmation
Procedure, shortened: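 Cells at 2,500 per well in MEM with 10% fetal bovine serum and 1% NEAA were exposed to test compounds for 48 h at 37°C, 5% CO2. Viability was read by fluorescence, with percent inhibition calculated against 50 μM doxorubicin (positive) and DMSO (negative) controls.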

[2] = tested on: P. berghei ookinete development; details: for % inhibition, Replicate A / % inhibition, Replicate B: primary screen at 1 μM
[3] = read-out: Pb ODA (this manuscript) IC50, P. berghei ookinete development assay, this manuscript
[4] = read-out: Pb Ookinete development assay IC50, dose response confirmation
[5] = read-out: Pb ODA IC50, this manuscript
[6] = unified HepG2 value across the three screens

| Compound | IC50 [1] | Pb ODA (this manuscript) HepG2 cytoxicity (HepG2 cells) | IC50 (HepG2 cells) | Is compound selective in assay? Pb ODA active? [2] | % inhibition, Replicate A [2] | % inhibition, Replicate B [2] | IC50 [2, 3] | IC50 [2, 4] | HepG2 cytoxicity (Pb ODA, this manuscript) (HepG2 cells; HepG2, this manuscript) | Unified cytotox (HepG2 cells; HepG2 values of the three screens unified) | Is compound selective in assay? Pb ODA active? ([2]; 1: YES, 0: NO) | IC50 [2, 5] | Unified cytotox (HepG2 cells; [6]) |
| --- | --- | --- | --- | --- | --- | --- | --- | --- | --- | --- | --- | --- | --- |
| Cc1[nH]c(C)c(-c2ccc(S(=O)(=O)c3ccc(Cl)cc3)cc2)c(=O)c1Br [TCMDC-137414] | 66 nM | 100.00 µM | 100000 nM | 1 (key: 1: YES; 0: NO) | 109.11% | 112.52% | 110 nM | 112 nM | – | – | – | – | – |
| Cc1cc(=O)c(-c2cccc(Oc3ccc(Cl)cc3)c2)c(C)[nH]1 [TCMDC-137415] | 396 nM | – | 35500 nM | – | 51.13% | 85.04% | – | 706 nM | 35.48 µM | 35.48 µM | 1 (1: YES) | 710 nM | – |
| Cc1[nH]c(C)c(-c2ccc(-c3ccc(Cl)cc3)cc2)c(=O)c1Cl [TCMDC-137416] | 378 nM | 57.54 µM | 57500 nM | 1 (key: 1: YES; 0: NO) | 59.25% | 97.22% | 2430 nM | 2430 nM | – | – | – | – | – |
| Cc1[nH]c(C)c(C2CCC(c3ccc(Cl)cc3)CC2)c(=O)c1Cl (centres unmarked) [TCMDC-137423] | 44 nM | – | 2240 nM | – | 93.67% | 102.07% | – | 75 nM | – | – | 1 (1: YES) | 75.5 nM | 2.24 µM |
| Cc1nc(C)c(-c2ccc(Cl)cc2)c(O)c1I [TCMDC-137424] | 239 nM | 100.00 µM | 100000 nM | 1 (key: 1: YES; 0: NO) | 40.29% | 60.84% | 1840 nM | 1840 nM | – | – | – | – | – |
| CCCCCCCc1c(C)[nH]c2ccccc2c1=O [TCMDC-137425] | 222 nM | 100.00 µM | 100000 nM | 1 (key: 1: YES; 0: NO) | 71.66% | 86.67% | 390 nM | 388 nM | – | – | – | – | – |
| COc1ccc2c(=O)c(Br)c(C)[nH]c2c1 [TCMDC-137426] | 842 nM | 100.00 µM | 100000 nM | 1 (key: 1: YES; 0: NO) | 81.77% | 82.46% | 480 nM | 483 nM | – | – | – | – | – |
| Cc1[nH]c2ccccc2c(=O)c1Br [TCMDC-137427] | 3390 nM | 100.00 µM | 100000 nM | 1 (key: 1: YES; 0: NO) | 55.99% | 67.98% | – | 1600 nM | – | – | – | – | – |
| Cc1[nH]c(C)c(-c2ccc(C(F)(F)F)cc2)c(=O)c1Br [TCMDC-137429] | 369 nM | 100.00 µM | 100000 nM | 1 (key: 1: YES; 0: NO) | 133.13% | 107.96% | 650 nM | 648 nM | – | – | – | – | – |
| CCCCCCCCc1c(C)[nH]c(C)c(C#N)c1=O [TCMDC-137431] | 794 nM | – | 34700 nM | – | 93.99% | 59.83% | – | 460 nM | – | – | 1 (1: YES) | – | 34.67 µM |
| CCCCC1=CC2C(=O)C(C(=O)OC)=CN=C2C=C1OCc1ccccc1 (centres unmarked) [TCMDC-137492] | 140 nM | – | 100000 nM | – | 85.39% | 106.84% | – | 3020 nM | – | – | 1 (1: YES) | 3020 nM | 100.00 µM |
| CCCCOc1cc2ncc(C(=O)OCC)c(O)c2cc1OCCCC [TCMDC-137523] | 63 nM | – | 100000 nM | – | 74.60% | 95.02% | – | 2190 nM | – | – | 1 (1: YES) | 2190 nM | 100.00 µM |
